The values below are quoted from earlier work in patent US6770263B1, “Compositions and methods for the treatment of aches and pains” (NatureWell, Incorporated, priority 2001, dated 2004).

For the series the following is noted: following the administration of 500 mg aspirin.

On to `CC(=O)Oc1ccccc1C(=O)O` [aspirin, acetylsalicylic acid], for which the plasma level was 130 µM.
